In patent publication US10004716B2, “Therapeutic/ preventive agent containing coumarin derivative as active ingredient” (NIPPON ZOKI PHARMACEUTICAL CO., LTD., priority 2014, dated 2018):

How the values were obtained:
[1] = tested on: NF-κB; assay: Suppressive action to NF-κB activation (luciferase reporter, HEK293T cells, TNF-α); format: cell-based, human; settings: HEK293T cells with NF-κB reporter; test substance 25 μml/mL 1 hour, then TNF-α 10 ng/mL 5 hours; stimulated TNF-α = 100
Description: A preparation solution containing pGL4.32 [luc2P/NF-κB-RE/Hygrol] (Promega) which is an NF-κB reporter vector, pGL4.74 [hRluc/TK] (Promega) which is a control vector and Lipofectamine LTX (Life Technologies) which is a gene transfer agent was added to human embryo kidney cells (HEK293T cells) sown onto a […] whereupon there were prepared the cells which transiently express a reporter protein.
After 24 hours from the gene transfer, transient expression cells were peeled off by treating with trypsin, sown on a poly-lysine coated white 96-well plate and incubated for one night. The test substance was added to as to make its final concentration 25 μml/mL and, after pre-incubating for 1 hour, TNF-α was added thereto so as to make its final concentration 10 ng/mL followed by incubating for 5 hours more. The cells were dissolved and the activities of a firefly luciferase and a renilla luciferase were measured. Rate of the luminescent intensity by addition of each drug to the luminescent intensity by stimulation with TNF-α were calculated.

[2] = tested on: TGF-β1 gene expression; assay: Evaluation II: TGF-β-induced gene expression of fibrosis-related factors in NHLF cells: TGF-β1; format: cell-based, human; settings: 30 μM test substance, 200 μg/mL pirfenidone, 30 μM DEX, 1.0 μM TPCA-1 or 10 μM FP 2 hours, then TGF-β 0.5 ng/mL 4 hours, n = 4
Description: (§1) NHLF cells were sown so as to make their amount 5×10^4 cells/well to each well of a 12-well plate and incubated to an extent of 80% confluent in a medium where fibroblast growth medium 2 supplement mix (FGM-2 SingleQuots, Lonza) was added to a fibroblast basal medium (FBM, Lonza). After that, incubation was conducted for 2 hours in a DMEM medium containing 30 μM of a test substance, 200 μg/mL of pirfenidone, 30 μM of dexamethasone (DEX), 1.0 μM of TPCA-1 or 10 μM of fluticasone propionate (FP) and, after TGF-β was added thereto so as to make its final concentration 0.5 ng/mL, incubation was carried out for 4 hours more.
(§2) With regard to the extraction of RNA from NHLF cells, the synthesis of cDNA from RNA and the action of the test substance to gene expression of fibrosis-related factors [CFGF, TGF-β1, fibronectin and Col 1], the tests were carried out in the same manners as in (2) and (3) of the above Test Example 3.

[3] = tested on: CTGF gene expression; assay: Evaluation II: TGF-β-induced gene expression of fibrosis-related factors in NHLF cells: CTGF; format: cell-based, human; settings: 30 μM test substance, 200 μg/mL pirfenidone, 30 μM DEX, 1.0 μM TPCA-1 or 10 μM FP 2 hours, then TGF-β 0.5 ng/mL 4 hours, n = 4
Description: as §1, §2

[4] = tested on: fibronectin gene expression; assay: Evaluation II: TGF-β-induced gene expression of fibrosis-related factors in NHLF cells: fibronectin; format: cell-based, human; settings: 30 μM test substance, 200 μg/mL pirfenidone, 30 μM DEX, 1.0 μM TPCA-1 or 10 μM FP 2 hours, then TGF-β 0.5 ng/mL 4 hours, n = 4
Description: as §1, §2

[5] = tested on: Col 1 gene expression; assay: Evaluation II: TGF-β-induced gene expression of fibrosis-related factors in NHLF cells: Col 1; format: cell-based, human; settings: 30 μM test substance, 200 μg/mL pirfenidone, 30 μM DEX, 1.0 μM TPCA-1 or 10 μM FP 2 hours, then TGF-β 0.5 ng/mL 4 hours, n = 4
Description: as §1, §2

[6] = tested on: mice where pulmonary fibrosis was induced by bleomycin; assay: Lung wet weight increase of mice where pulmonary fibrosis was induced by bleomycin; format: in vivo; settings: ICR male mice, bleomycin 2 mg/kg i.v. 5 days; test substance 50 mg/kg or pirfenidone 200 mg/kg per os twice daily for 2 weeks; normal control 205, diseased control 303
Description: Bleomycin (2 mg/kg) was repeatedly injected intravenously for 5 days to ICR male mice. The mice were organized into 4 groups of normal control group, diseased control group, test substance-administered group and pirfenidone-administered group.
A test substance was suspended in 0.5 w/v % carboxymethyl cellulose sodium (CMC) and 50 mg/kg thereof was repeatedly administered per os with stirring twice daily for 2 weeks using an oral sonde for rats. Pirfenidone was suspended in 0.5 w/v % CMC and 200 mg/kg thereof was repeatedly administered per os with stirring twice daily for 2 weeks using an oral sonde for rats. To the normal control group and the diseased control group, 0.5 w/v % CMC was repeatedly administered per os according to the same administration schedule. After finishing the administration period, both lungs were excised from the mice and their wet weight was measured.

Compound	Luminescent Intensity to Stimulated TNF-α (%) [1] [%]	Copy Numbers per 10000 Copies of GAPDH TGF-β1 [2]	Copy Numbers per 10000 Copies of GAPDH CTGF [3]	Copy Numbers per 10000 Copies of GAPDH Fibronectin [4]	Copy Numbers per 10000 Copies of GAPDH Col 1 [5]	Wet Lung Weight [6] [mg]
O=c1oc2c(OS(=O)(=O)c3cccc([N+](=O)[O-])c3)cccc2cc1NS(=O)(=O)c1cccc([N+](=O)[O-])c1 [Compound 17, 3-[(3-Nitrophenyl)sulfonylamino]-2-oxochromen-8-yl 3-nitrobenzenesulfonate]	0.1	–	–	–	–	–
C[C@@H]1C[C@H]2[C@@H]3CCC4=CC(=O)C=C[C@]4(C)[C@@]3(F)[C@@H](O)C[C@]2(C)[C@@]1(O)C(=O)CO [DEX, dexamethasone]	–	546.9 copies per 10000 copies of GAP	1010.1 copies per 10000 copies of GAP	4314.6 copies per 10000 copies of GAP	610.7 copies per 10000 copies of GAP	–
CCC(=O)O[C@]1(C(=O)SCF)[C@H](C)C[C@H]2[C@@H]3C[C@H](F)C4=CC(=O)C=C[C@]4(C)[C@@]3(F)[C@@H](O)C[C@@]21C [FP, fluticasone propionate]	–	450.6 copies per 10000 copies of GAP	1166.8 copies per 10000 copies of GAP	3603.2 copies per 10000 copies of GAP	593.3 copies per 10000 copies of GAP	–
Cc1ccc(=O)n(-c2ccccc2)c1 [Pirfenidone]	–	962.5 copies per 10000 copies of GAP	180.6 copies per 10000 copies of GAP	1689.7 copies per 10000 copies of GAP	1027.6 copies per 10000 copies of GAP	242
NC(=O)Nc1sc(-c2ccc(F)cc2)cc1C(N)=O [TPCA-1]	–	886.9 copies per 10000 copies of GAP	461.2 copies per 10000 copies of GAP	3757.9 copies per 10000 copies of GAP	840.4 copies per 10000 copies of GAP	–
